Data: patent US10835605B2, “Preparations of poly(lactic-co-glycolic acid)/polydopamine core/shell hybrid nanoparticle for photothermal applications” (UNIVERSITY OF SOUTH CAROLINA, priority 2015, dated 2020)

Key:
UMSCC 22A cells [1] = assay: Cellular uptake by confocal microscopy and flow cytometry; type: cell-based; conditions: flow cytometry, 3 h incubation, FIG. 8
Method: UMSCC 22A cells (300,000cells/well) were seeded in 6-well plates overnight. After that, DOX, DOX@PLGA/PD-PEG, and DOX@PLGA/PD-C nanoparticles were added at the DOX equivalent concentration of 1 μg/m L. In order to investigate the effect of EGFR on the cellular uptake of DOX@PLGA/PD-C nanoparticle, cells were pretreated with free anti-EGFR antibody (200 μg/mL) 30 min before adding DOX@PLGA/PD-C nanoparticles. The plate was incubated at 37° C. for 3 h. Then cells were washed, trypsinized and resuspended in PBS. DOX-positive cell population was quantified at Ex=488 nm, Em=585 nm using flow cytometry (BD Accuri C6, BD Biosciences).

UMSCC 22A cells [2] = assay: In vitro cytotoxicity (MTT cell proliferation assay) with or without NIR irradiation; type: cell-based; conditions: FIG. 9
Method: The cytotoxicity of nanoparticles was evaluated by MTT assay. UMSCC 22A cells were seeded in 96-well plate (20,000 cells/well) for 24 h prior to the study. Following, either free DOX or DOX@PLGA/PD-PEG nanoparticles with DOX concentration equal to 2, 5 and 10 μg/mL were added. For comparison, PLGA/PD-PEG (no DOX encapsulation) nanoparticles were also added. The cells were then incubated 3 h in 95/5% air/CO2 at 37° C. followed by irradiation under a 808 nm laser for 10 min. After that, all wells were washed 2 times and replaced with fresh culture medium and kept incubation for another 24 h. Finally, MTT reagent (100 μL, 10%(w/w) in medium) was added and incubated for 4h, following the addition of MTT stop solution and the measurement of the optical density of the medium using a microplate reader (ELX808, Bio-Tech Instrument, Inc.) at λ=595 nm.

UMSCC 22A cells [3] = assay: Tumor growth inhibitory assay, subcutaneous head and neck cancer mouse model; type: in vivo, female Balb/c nude mice
Method: UMSCC 22A cells (3×10^6 cells in 100 μL DMEM medium) were inoculated subcutaneously in female Balb/c nude mice (8-10 week old, ˜20 g, Jackson Laboratory). The tumor volume was measured by a digital caliper and calculated according to the following formula: Tumor volume=tumor length)×(tumor width)^2/2. […] For the control group, PBS was injected. Mice were exposed to an 808 nm laser irradiation (2.83 W/cm^2) 3 h post injection for 10 min. The temperature of the mice during the irradiation was recorded by the FLIR thermal camera. The tumor volumes (V) of the mice were measured every other day for 24 days. The relative tumor volume expressed as V/V0 (V0 was the tumor volume when the treatment was initiated) was used to represent the tumor size change during the whole treatment process. After 24 days, the mice were sacrificed and the blood, tumor, liver, heart, lung, kidneys, and spleen were collected for further analysis. All organs were firstly fixed in 10% neutral buffered formalin for 48 h and then washed with PBS and finally kept in 70% ethanol at 4° C.

[4] = TEM analysis of heart tissue (cardiotoxicity); type: in vivo, mice; conditions: hearts collected after 24 days; DOX@PLGA/PD-C coupled with NIR irradiation
Method: To study the cardiotoxicity of DOX, the hearts of the mice were analyzed by TEM. The formalin fixed samples were further fixed with 1% perosmic oxide for 2 h at 4° C., washed with water and then dehydrated in a series of alcohol solutions, embedded, and sliced with the thickness between 50 and 70 nm. TEM analysis was performed on Hitachi H8000 operating at 200 kV.

COc1cccc2c1C(=O)c1c(O)c3c(c(O)c1C2=O)C[C@@](O)(C(=O)CO)C[C@@H]3O[C@H]1C[C@H](N)[C@H](O)[C@H](C)O1 [free DOX, Doxorubicin]
speed of entry into cancer cells (UMSCC 22A cells [1]): entered cancer cells faster than the DOX@PLGA/PD-C nanoparticles | cell killing effect versus other treatments (UMSCC 22A cells [2]): higher cell killing effect than other treatments except at 10 μM dose | tumor recurrence / regrowth (UMSCC 22A cells [3]; 24-day observation): gradually bounced back 10 days post treatment | tumor response after treatment (UMSCC 22A cells [3]; intratumoral, 40 μL, DOX equivalent 15 μg/mL, DOX@PLGA/PD-C coupled with NIR irradiation): only slightly reduced tumor size | H&E staining of tumor tissue (UMSCC 22A cells [3]; tumors collected after 24 days): kept the characteristics of squamous cell carcinoma | heart tissue structure (mitochondria) by TEM [4]: significantly compromised
